In patent US20240228647A1, “OFATUMUMAB FOR TREATING MULTIPLE SCLEROSIS IN ASIAN PATIENTS” (Novartis AG, priority 2021, published 2024):
Read-outs that look alike come from different tables or passages of the source. Marks after values point to notes of the source that are not given here.

Experiments:
[1] = system: patients with RMS; assay: Annualized rate of new or enlarging T2 lesions, Phase III Studies I and II; format: in vivo, human; settings: for New or enlarging T2 lesions rate reduction (%): vs teriflunomide
Protocol: (§1) Ofatumumab was investigated in 1882 patients with RMS from two identical Phase III randomized, double-blind, double-dummy, active-comparator controlled, parallel-group, multicenter studies of identical design (Study I and Study II). Patients were randomized to receive either ofatumumab, OMB (20 mg s.c injections every 4 weeks, after an initial loading regimen of 3 injections on Day 1, 7, and 14), or teriflunomide, TER (14 mg p.o. once a day) as active comparator. For brevity, the teriflunomide data are not shown hereinafter.
(§2) The maximum treatment duration for an individual patient was 30 study months (approximately 2.5 years). The two studies included a total of 71 patients of Asian race (36 patients in ofatumumab and 35 patients in teriflunomide treatment groups). This Example also includes the Asian patients data from oncology studies (Study A and Study B), as supportive data, where required.
The annualized rate of new or enlarging T2 lesions was a key secondary efficacy endpoint in the pivotal Phase III studies.

[2] = system: patients with RMS; assay: Time to confirmed disability worsening (3mCDW, 6mCDW), Phase III Studies I and II; format: in vivo, human; settings: for 3mCDW event rate n/N (%) / 3mCDW events n / 6mCDW event rate n/N (%) / 6mCDW events n: FAS
Protocol: as §1, §2
Time to 3 mCDW and 6 mCDW were key secondary efficacy endpoints in the pivotal Phase III studies.

[3] = human, in vivo
[4] = system: patients with RMS; assay: Gd-enhancing T1 lesions per scan, Phase III Studies I and II; format: in vivo, human; settings: for Gd-enhancing T1 lesions rate reduction (%): vs teriflunomide
Protocol: as §1, §2
The number of Gd-enhancing T1 lesions per scan was a key secondary efficacy endpoint in the pivotal Phase III studies.

[5] = Pharmacokinetics of ofatumumab in patients (ethnic comparison, half-life); settings: 2000 mg intravenous infusion, refractory CLL
[6] = system: patients with Relapsing Multiple Sclerosis; settings: for COVID-19 outcome / COVID-19 symptoms duration: serious case
[7] = system: serum IgG and IgM levels; assay: Serum IgG and IgM levels under long-term ofatumumab treatment; format: in vivo, human
Protocol: Serum immunoglobulin (Ig) levels can be determined routinely in clinical practice. In the present application serum Ig levels can preferably be determined by immunoturbidimetry. Preferably a Roche cobas® Analyzer was used, especially module c of the cobas® analyser. In a preferred embodiment Ig levels can be determined by using a cobas® c 311 analyzer. It is further preferred that IgG measurements are carried out as described in the cobas® leaflet “IGG-2 Tina-quant IgG Gen.2”, preferably version 11.0 dated 2016-02 and IgM measurements as described in the leaflet “IGM-2 Tina-quant IgM Gen.2”, preferably version 13.0 dated 2018-11.
Serum samples were preferably kept at 2-8° C. before measurement.
Patients were subjected to a long term treatment. Patients received ofatumumab 20 mg sc injections every 4 weeks (after an initial loading regimen of 20 mg sc doses on weeks 0, 1 and 2).

[8] = system: patients with RMS; assay: Annualized relapse rate (ARR), confirmed relapses, Phase III Studies I and II; format: in vivo, human; settings: for ARR (number of relapses/patient years) / Adjusted ARR (9559) / Number of relapses (confirmed): FAS; for ARR rate reduction (%): vs teriflunomide
Protocol: as §1, §2
ARR was the primary efficacy endpoint in the pivotal Phase III studies. Treatment with ofatumumab and teriflunomide were both associated with relatively low ARRs. in the Asian subgroups, with 4 to 5 confirmed relapses in any of the treatment groups (ARRs of 0.08-0.09) (Table 2).

[9] = patient 5409018, OMB interrupted
[10] = patient 5608014, OMB interrupted
[11] = patient 5800004, drug withdrawn
[12] = patient 5801015, OMB interrupted

ofatumumab [OMB]
New or enlarging lesions/patient years (lesion years) ([1]; Asian): (1.00)
Number of new or enlarging lesions ([1]; Asian): 44/44
New or enlarging lesions/patient years (lesion years) ([1]; Rest of World): (0.84
Number of new or enlarging lesions ([1]; Rest of World): 1185/1404
Reduction of rate of new or enlarging T2 lesions compared with teriflunomide ([1]; overall population): 82.9%
New or enlarging T2 lesions rate reduction (%) ([1]; Asian): 59.0/0.041* %
New or enlarging T2 lesions rate reduction (%) ([1]; Rest of World): 83.3/<0.001* %
3mCDW event rate n/N (%) ([2]; Asian (race)): (8.3) %
3mCDW events n ([2]; Asian (race)): 3/36
6mCDW event rate n/N (%) ([2]; Asian (race)): (8.3) %
6mCDW events n ([2]; Asian (race)): 3/36
3mCDW event rate n/N (%) ([2]; Rest of World (race)): (9.3) %
3mCDW events n ([2]; Rest of World (race)): 85/910
6mCDW event rate n/N (%) ([2]; Rest of World (race)): (7.5) %
6mCDW events n ([2]; Rest of World (race)): 68/910
3mCDW risk reduction compared with teriflunomide ([2]; overall population): 33.0%
6mCDW risk reduction compared with teriflunomide ([2]; overall population): 31.0%
Ofatumumab concentrations in Asian subjects and White subjects [3]: Comparable ofatumumab concentrations
Race as a covariate in the population PK analysis [3]: not found to be a significant covariate
Half-life at steady state ([3]; sc, 20 mg): approximately 16 days
Gd-enhancing lesions/number of scans (lesion rate) ([4]; Asian): (0.019)
Number of Gd-enhancing lesions ([4]; Asian): 1/54
Gd-enhancing lesions/number of scans (lesion rate) ([4]; Rest of World): (0.031)
Number of Gd-enhancing lesions ([4]; Rest of World): 51/1666
Reduction of mean number of Gd-enhancing T1 lesions per scan compared with teriflunomide ([4]; overall population): 95.8%
Gd-enhancing T1 lesions rate reduction (%) ([4]; Asian): 93.8/0.022* %
Gd-enhancing T1 lesions rate reduction (%) ([4]; Rest of World): 95.9/<0.001* %
PK parameters (Cmax, AUC, T1/2) in Asian vs. White patients [5]: Comparable PK parameters
COVID-19 outcome Ongoing, cases ([6]; non-serious cases (n = 29)): 0
COVID-19 outcome Recovered, cases ([6]; non-serious cases (n = 29)): 29
COVID-19 outcome Recovering, cases ([6]; non-serious cases (n = 29)): 0
Complete recovery from COVID-19, cases ([6]; of 35 confirmed cases): 34
COVID-19 outcome [6, 9]: Complete
COVID-19 symptoms duration [6, 9]: ~50 days
COVID-19 outcome [6, 10]: Complete
COVID-19 symptoms duration [6, 10]: 18 days
COVID-19 outcome [6, 11]: Fatal
COVID-19 symptoms duration [6, 11]: ~30 days
COVID-19 outcome ([6]; patient 5800043, OMB continued): Complete
COVID-19 symptoms duration ([6]; patient 5800043, OMB continued): 11 days
COVID-19 outcome [6, 12]: Complete
COVID-19 symptoms duration [6, 12]: 15 days
COVID-19 outcome ([6]; patient 5806001, OMB continued): Complete
COVID-19 symptoms duration ([6]; patient 5806001, OMB continued): 10 days
COVID-19 outcome Fatal, cases ([6]; serious cases (n = 6)): 1
COVID-19 outcome Recovered, cases ([6]; serious cases (n = 6)): 5
IgM levels with longer duration ([7]; 20 mg sc every 4 weeks, FIGS. 3 and 4): A reduction in IgM levels
IgG levels over the long-term follow-up ([7]; 20 mg sc every 4 weeks, follow-up of >4 years, FIG. 1): stable
IgM levels versus lower limit of normal ([7]; 20 mg sc every 4 weeks, longer duration, FIGS. 3 and 4): levels remained above the lower limit of normal
Increase of IgG levels ([7]; after two years (96 weeks), FIG. 6): about 3%
ARR (number of relapses/patient years) ([8]; Asian (race)): (0.084)
Adjusted ARR (9559) ([8]; Asian (race)): 0.08 (0.03, 0.24)
Number of relapses (confirmed) ([8]; Asian (race)): 4/47
ARR (number of relapses/patient years) ([8]; Rest of World (race)): (0.122)
Adjusted ARR (9559) ([8]; Rest of World (race)): 0.12 (0.10, 0.14)
Number of relapses (confirmed) ([8]; Rest of World (race)): 181/1490
Reduction of adjusted ARR compared with teriflunomide ([8]; overall population): 52.6%
ARR rate reduction (%) ([8]; Asian (race)): 11.8/0.862%
ARR rate reduction (%) ([8]; Rest of World (race)): 53.3/<0.001* %
ARR rate reduction (%) ([8]; Rest of World (race), listed as ofatumumab): 53.3%
